Test results published in ChEMBL document CHEMBL1122602, “2-Acetylpyridine thiosemicarbazones. 8. Derivatives of 1-acetylisoquinoline as potential antimalarial agents” (1984).

Experiments:
Assay type in all cases: functional
Mus musculus [1] = assay: Antimalarial activity was assessed against Plasmodium berghei in mice (Mus musculus) at 320 mg/kg dosage of the compound; Toxic
Mus musculus [2] = assay: Antimalarial activity was assessed against Plasmodium berghei in mice (Mus musculus) at 640 mg/kg dosage of the compound; Toxic
Mus musculus [3] = assay: Antimalarial activity was assessed against Plasmodium berghei in mice (Mus musculus) at 160 mg/kg dosage of the compound; Toxic
Mus musculus [4] = assay: Antimalarial activity was assessed against Plasmodium berghei in mice (Mus musculus) at 640 mg/kg dosage of the compound: Toxic
Mus musculus [5] = assay: Antimalarial activity was assessed against Plasmodium berghei in mice (Mus musculus). at 320 mg/kg dosage of the compound; Toxic

SMILES	toxic deaths (Mus musculus [1])	toxic deaths (Mus musculus [2])	toxic deaths (Mus musculus [3])	toxic deaths (Mus musculus [4])	toxic deaths (Mus musculus [5])
CC(N/N=C(\S)N1CCCC1)c1nccc2ccccc12 (stereo unspecified)	2 count	4 count			
C/C(=N\N=C(/S)N(C)C)c1nccc2ccccc12	5 count	5 count			
CC(N/N=C(\S)N1CCN(c2ccccn2)CC1)c1nccc2ccccc12 (stereo unspecified)	2 count	1 count			
C/C(=N\N=C(/S)N1CCC(C)CC1)c1nccc2ccccc12	5 count		1 count	5 count	
CC1CN(/C(S)=N/NC(C)c2nccc3ccccc23)CC(C)O1 (stereo unspecified)		1 count			1 count
CC1CCN(/C(S)=N/NC(C)c2nccc3ccccc23)CC1 (stereo unspecified)	5 count	5 count			
C/C(=N\N=C(/S)N1CCCC1)c1nccc2ccccc12		5 count			
C/C(=N\N=C(/S)N1CC(C)OC(C)C1)c1nccc2ccccc12 (stereo unspecified)	1 count	2 count			
CC(N/N=C(\S)N1CCCCCC1)c1nccc2ccccc12 (stereo unspecified)	3 count	2 count			
C/C(=N\N=C(/S)N1CCCCCC1)c1nccc2ccccc12		4 count			
CC(N/N=C(\S)N(C)C1CCCCC1)c1nccc2ccccc12 (stereo unspecified)	3 count	3 count	2 count		
C/C(=N\N=C(/S)N(C)C1CCCCC1)c1nccc2ccccc12		5 count	1 count		
CC(N/N=C(\S)N(C)C)c1nccc2ccccc12 (stereo unspecified)		5 count	1 count		
